Assay [1] concerns hypertensive and nonhypertensive stroke patients. Conditions: cited from earlier work.
Assay [2] concerns hypertensive patients after cerebral ischemia, transitory ischemic attack or intracerebral hemorrhage. The experiment in a line: Prospective, randomized clinical study (PROBE design) of eprosartan versus nitrendipine for prevention of subsequent strokes, interim report. It is filed as in vivo, human. As to conditions: for incidence of subsequent cerebrovascular events / number of subsequent cerebrovascular events: interim report, 179 patients eprosartan group, 158 patients nitrendipine group, average observation period 18.4 / 18.3 months; for number of subsequent cerebrovascular events: start 600 mg eprosartan once daily or 10 mg nitrendipine q.d. The text has this:
A clinical study is currently being conducted on 1369 patients, investigating the suitability of antihypertensive agents of various pharmacological classes to reduce a patient's risk of suffering a subsequent stroke.
Of the 1369 patients (male/female), 691 patients received the AT1-receptor antagonist eprosartan (as eprosartan mesylate); 678 of the 1369 patients received the calcium antagonist nitrendipine.
The study is being conducted as a prospective, randomized, controlled and multicentric study and corresponds to the PROBE design (=prospective, randomized, open-blinded endpoint). The primary target criterion is the evaluation of the total mortality and the total number of cardiovascular and cerebrovascular events (strokes) in the sense of this invention.
The subsequent efficacy parameter is the change in mental abilities (evaluated on the basis of neurological findings, Barthel index and Rankin scale). In addition, the change in the average blood pressure over a period of time is evaluated in measurements performed on the patients sitting down in the office as well as in ambulatory 24-hour blood pressure measurements.
The study begins within 24 months after the occurrence of cerebral ischemia or an intracerebral hemorrhage in a patient. The patients are observed for up to four years. The essential prerequisite for including a patient in the study is hypertension requiring treatment and the condition following a cerebral ischemia, a transitory ischemic attack or an intracerebral hemorrhage within the last 24 months. Essential exclusion criteria include an occlusion or stenosis of greater than 70% of the internal carotid artery (ICA), manifest cardiac insufficiency (NYHY [sic; NYHA] class III-IV), age of patient greater than 85 years at the time of the cerebrovascular event, anticoagulant therapy for a patient because of cardiac arrhythmia, high-grade aortic or mitral valve stenosis, unstable angina pectoris or a known hypersensitivity to AT1-receptor antagonists or calcium antagonists of the dihyropyridine type or chemically related substances.
After inclusion in the study, the patients begin the randomized treatment phase with eprosartan or nitrendipine. Depending on the blood pressure readings and patient-specific criteria, treatment begins with 600 mg eprosartan once daily or 10 mg nitrendipine q.d. For long-term therapy, a diastolic blood pressure of less than 90 mmHg sitting down and a systolic blood pressure of less than 140 mmHg are the goals. For the 24-hour blood pressure measurements, a daily average of less than or equal to 135/85 mmHg is the goal. If additional antihypertensive therapy is necessary, conventional recognized criteria such as those recommended by the German Hypertension League are followed in the combination therapy. Combination therapy with ACE inhibitors, AT1-receptor antagonists or calcium antagonists should not be used.
Study end points (target criteria) are transmitted immediately to the central study office, where they are treated as open-blind results with respect to the medication and then forwarded to the End Point Committee. The committee performs the evaluation and classification of the findings with regard to a cardiovascular or cerebrovascular end point.
In an interim report on this study, the data on a total of 337 of the participating patients has been evaluated; 179 of these 337 patients received eprosartan (eprosartan group) and 158 of these 337 patients received nitrendipine (nitrendipine group). […]

On to `CCC[C@H](N[C@@H](C)C(=O)N1[C@H](C(=O)O)C[C@@H]2CCCC[C@@H]21)C(=O)OCC` [ACE monotherapy, perindopril], for which the “blood pressure of patients” value in assay [1] (hypertensive group) is listed as “lowered to a comparable extent”. Moreover, the “risk of suffering a subsequent stroke” value in assay [1] (subgroup of hypertensive patients, versus placebo patient group) is “did not differ from the corresponding risk in the placebo patient group”.

As to `CCCCc1ncc(/C=C(\Cc2cccs2)C(=O)O)n1Cc1ccc(C(=O)O)cc1.CS(=O)(=O)O` [eprosartan, (E)-α-[[2-butyl-1-[(4-carboxyphenyl)methyl]-1H-imidazol-5-yl]-methylene]-2-thiophenepropanoic acid monomethanesulfonate], in assay [2], the “incidence of subsequent cerebrovascular events” value is reported as 8.4% and the “number of subsequent cerebrovascular events” value is reported as 15. The “reduction in a patient's risk of having a subsequent stroke” value in assay [2] (monotherapy, conclusion from the interim clinical findings) is “significant reduction”.

As for `CCOC(=O)C1=C(C)NC(C)=C(C(=O)OC)C1c1cccc([N+](=O)[O-])c1` (stereo not shown) [nitrendipine], in assay [2], the “incidence of subsequent cerebrovascular events” value is on record as 13.9% and the “number of subsequent cerebrovascular events” value stood at 22.
